Experimental data published in ChEMBL document CHEMBL4680330, “Soloxolone methyl, as a 18βH-glycyrrhetinic acid derivate, may result in endoplasmic reticulum stress to induce apoptosis in breast cancer cells” (Bioorg Med Chem, 2021).
Calls of active or inactive are those of the source. No cut-off for these calls is given here.

Assays:
[1] = system: Epidermoid carcinoma cell line; experiment: Cytotoxicity against human Epidermoid carcinoma cell line; type: functional, cell-based
MDA-MB-231 [2] = experiment: Cytotoxicity against human MDA-MB-231 cells assessed as reduction in cell viability incubated for 48 hrs by ATP based luminometry; type: functional; settings: MDA-MB-231, 48 h
MDA-MB-231 [3] = experiment: Induction of apoptosis in human MDA-MB-231 cells assessed as cleaved pro-caspase 8 level at 10 uM incubated for 24 hrs by Western blot analysis (reference value: 1); type: functional
MDA-MB-231 [4] = experiment: Induction of apoptosis in human MDA-MB-231 cells assessed as early apoptotic cells at 10 uM incubated for 24 hrs by annexin V-FITC and PI staining based flow cytometry analysis (reference value: 0.70 %); type: functional
MCF7 [5] = experiment: Induction of cell death in human MCF7 cells assessed as upregulation of HRK gene at 10 uM incubated for 24 hrs by RT-PCR analysis; type: functional, cell-based
MDA-MB-231 [6] = experiment: Induction of apoptosis in human MDA-MB-231 cells assessed as necrotic cells at 10 uM incubated for 24 hrs by annexin V-FITC and PI staining based flow cytometry analysis (reference value: 0.95 %); type: functional
MDA-MB-231 [7] = experiment: Induction of cell death in human MDA-MB-231 cells assessed as downregulation of RIPK gene at 10 uM measured after 48 hrs by RT-PCR analysis; type: functional, cell-based
MDA-MB-231 [8] = experiment: Induction of endoplasmic reticulum stress in human MDA-MB-231 cells assessed as IRE1-alpha expression at 10 uM incubated for 24 hrs by Western blot analysis (reference value: 1); type: functional
MDA-MB-231 [9] = experiment: Induction of apoptosis in human MDA-MB-231 cells assessed as viable cells at 10 uM incubated for 24 hrs by annexin V-FITC and PI staining based flow cytometry analysis (reference value: 94.40 %); type: functional; settings: read-out: Activity
MDA-MB-231 [10] = experiment: Induction of cell death in human MDA-MB-231 cells assessed as downregulation of MLKL gene at 10 uM measured after 48 hrs by RT-PCR analysis; type: functional, cell-based
MDA-MB-231 [11] = experiment: Induction of cell death in human MDA-MB-231 cells assessed as upregulation of HRK gene at 10 uM incubated for 48 hrs by RT-PCR analysis; type: functional, cell-based
MCF7 [12] = experiment: Induction of endoplasmic reticulum stress in human MCF7 cells assessed as BIP expression at 10 uM incubated for 24 hrs by Western blot analysis (reference value: 1); type: functional
MCF7 [13] = experiment: Induction of apoptosis in human MCF7 cells assessed as necrotic cells at 10 uM incubated for 24 hrs by annexin V-FITC and PI staining based flow cytometry analysis (reference value: 15.60 %); type: functional
MCF7 [14] = experiment: Induction of cell death in human MCF7 cells assessed as downregulation of RIPK gene at 10 uM incubated for 48 hrs by RT-PCR analysis; type: functional, cell-based
MCF7 [15] = experiment: Induction of apoptosis in human MCF7 cells assessed as late apoptotic cells at 10 uM incubated for 24 hrs by annexin V-FITC and PI staining based flow cytometry analysis (reference value: 14.60 %); type: functional
MDA-MB-231 [16] = experiment: Induction of cell death in human MDA-MB-231 cells assessed as upregulation of BECN1 gene at 10 uM incubated for 48 hrs by RT-PCR analysis; type: functional, cell-based
[17] = Induction of caspase 3/7 activity in human MDA-MB-231 cells assessed as induction of apoptosis by measuring necrotic cells at 10 uM incubated for 24 hrs by flow cytometry analysis (reference value: 0.85 %); type: functional
MCF7 [18] = experiment: Induction of apoptosis in human MCF7 cells assessed as cytokeratin 18 by measuring increase in M-30 level at 10 uM incubated for 48 hrs by ELISA; type: functional, cell-based
MCF7 [19] = experiment: Induction of apoptosis in human MCF7 cells assessed as pro-caspase 3 level at 10 uM incubated for 24 hrs by Western blot analysis (reference value: 1); type: functional
MDA-MB-231 [20] = experiment: Induction of apoptosis in human MDA-MB-231 cells assessed as late apoptotic cells at 10 uM incubated for 24 hrs by annexin V-FITC and PI staining based flow cytometry analysis (reference value: 3.95 %); type: functional
MDA-MB-231 [21] = experiment: Induction of apoptosis in human MDA-MB-231 cells assessed as pro-caspase 8 level at 10 uM incubated for 24 hrs by Western blot analysis (reference value: 1); type: functional
[22] = Induction of caspase 3/7 activity in human MDA-MB-231 cells assessed as induction of apoptosis by measuring late apoptotic cells at 10 uM incubated for 24 hrs by flow cytometry analysis (reference value: 1.55 %); type: functional
MCF7 [23] = experiment: Induction of apoptosis in human MCF7 cells assessed as early apoptotic cells at 10 uM incubated for 24 hrs by annexin V-FITC and PI staining based flow cytometry analysis (reference value: 0.20 %); type: functional
MDA-MB-231 [24] = experiment: Induction of apoptosis in human MDA-MB-231 cells assessed as pro-caspase 3 level at 10 uM incubated for 24 hrs by Western blot analysis (reference value: 1); type: functional
MCF7 [25] = experiment: Induction of apoptosis in human MCF7 cells assessed as cleaved PARP level at 10 uM incubated for 24 hrs by Western blot analysis (reference value: 1); type: functional
MDA-MB-231 [26] = experiment: Induction of apoptosis in human MDA-MB-231 cells assessed as PARP level at 10 uM incubated for 24 hrs by Western blot analysis (reference value: 1); type: functional
MDA-MB-231 [27] = experiment: Induction of late apoptosis in human MDA-MB-231 cells assessed as increase in rate of formation of pycnotic nuclei at 10 uM by Hoechst 33342 and PI staining based fluorescence microscopic analysis; type: functional, cell-based; settings: TDE = time-dependent effect
MCF7 [28] = experiment: Induction of apoptosis in human MCF7 cells assessed as cleaved pro-caspase 8 level at 10 uM incubated for 24 hrs by Western blot analysis (reference value: 1); type: functional
MDA-MB-231 [29] = experiment: Induction of early apoptosis in human MDA-MB-231 cells assessed as increase in PI negativity at 10 uM incubated for 24 hrs by Hoechst 33342 and PI staining based fluorescence microscopic analysis; type: functional, cell-based
MDA-MB-231 [30] = experiment: Induction of early apoptosis in human MDA-MB-231 cells assessed as increase in rate of formation of pycnotic nuclei at 10 uM incubated for 24 hrs by Hoechst 33342 and PI staining based fluorescence microscopic analysis; type: functional, cell-based
MCF7 [31] = experiment: Induction of ROS production in human MCF7 cells at 10 uM incubated for 24 hrs by flow cytometry analysis; type: functional, cell-based

Question: Which results are given for `COC(=O)[C@@]1(C)CC[C@]2(C)CC[C@]3(C)[C@H](C(=O)C=C4[C@@]5(C)C=C(C#N)C(=O)C(C)(C)[C@@H]5CC[C@]43C)[C@@H]2C1`?
Answer: IC50 [1]: ≥ 0.3 µM; IC50 (MDA-MB-231 [2]): 5.97 µM; fold change (FC) (MDA-MB-231 [3]): 2.4; Activity (MDA-MB-231 [4]): 2.95%; Activity (MCF7 [5]): Active; Activity (MDA-MB-231 [6]): 2.25%; Activity (MDA-MB-231 [7]): inactive; fold change (FC) (MDA-MB-231 [8]): 1.1; viability at 10 µM (MDA-MB-231 [9]): 25.2%; Activity (MDA-MB-231 [10]): inactive; Activity (MDA-MB-231 [11]): Active; fold change (FC) (MCF7 [12]): 0.8; Activity (MCF7 [13]): 10.8%; Activity (MCF7 [14]): Active; Activity (MCF7 [15]): 18.35%; Activity (MDA-MB-231 [16]): Active; Activity [17]: 0.5%; Activity (MCF7 [18]): Active; fold change (FC) (MCF7 [19]): 1.7; Activity (MDA-MB-231 [20]): 69.55%; fold change (FC) (MDA-MB-231 [21]): 2.1; Activity [22]: 76.4%; Activity (MCF7 [23]): 0.2%; fold change (FC) (MDA-MB-231 [24]): 1.3; fold change (FC) (MCF7 [25]): 4.5; fold change (FC) (MDA-MB-231 [26]): 0.6; Activity (MDA-MB-231 [27]): Tde; fold change (FC) (MCF7 [28]): 1.01; Activity (MDA-MB-231 [29]): Active; Activity (MDA-MB-231 [30]): Active; Activity (MCF7 [31]): inactive
